Laboratory results taken from patent US20260306500A1, “METHOD OF INHIBITING ADENOSINE TRIPHOSPHATE SECRETION, METHOD OF INHIBITING HEPATIC STELLATE CELL ACTIVATION, METHOD OF DEACTIVATING HEPATIC STELLATE CELL, METHOD OF TREATING HEPATIC FIBROSIS, METHOD OF TREATING NON-ALCOHOLIC STEATOHEPATITIS, AND METHOD OF TREATING PSORIASIS” (Kurume University, priority 2023, published 2026).

Columns and labels:
[1] = tested on: chromaffin granule membrane; test: ATP transport (uptake of radiolabeled ATP) in chromaffin granule membrane vesicles; type: biochemical, cattle; conditions: role: inhibitor; 1 mM 3H-ATP, 30° C., 1 hour, N=3 (FIG. 5); read-out: IC50 (concentration at 50% inhibition) of ATP transport
Protocol: (§1) Chromaffin granule membranes were prepared from adrenal glands collected from slaughtered cattle according to Reference A (Nathan Nelson et al., 1988, Chromaffin Granule Proton Pump, Methods in Enzymology, 157, 619-633). Chromaffin granule membranes prepared by sucrose density gradient centrifugation were suspended in 2 ml of SME buffer (20 mM MOPS-tris (pH 7.0), 0.3 M sucrose, 5 mM EDTA, 10 μg/ml leupeptin, and 10 μg/ml pepstatin)+25% glycerol, and the resulting suspension was aliquoted and stored at −80° C. Under these conditions, the ATP transport activity, the V-ATPase activity, and the catecholamine transport activity remain fully active for at least one year.
An ATP transport inhibition experiment for the chromaffin granule membrane was carried out according to Reference B (Yoshinori Moriyama et al., 2022, Is the vesicular nucleotide transporter a molecular target of eicosapentaenoic acid?, Frontiers in Pharmacology, 103389). About 20 μg of chromaffin granule membranes were added to 0.5 ml of measurement buffer (20 mM MOPS-tris (pH 7.0), 0.3 M sucrose, 5 mM potassium chloride, 5 mM magnesium acetate, 5 mM creatine phosphate, 10 units of creatine kinase, and 1 mM 3[H]-ATP [15 KBq/assay]), followed by incubation at 30° C. for 1 hour. Through a Millipore MCE membrane filter with a pore size […], 0.2 ml of the reaction liquid was filtered by suction. Thereafter, the filter was washed with 10 ml of 20 mM MOPS-tris (pH 7.0), 0.3 M sucrose, 5 mM potassium chloride, and 5 mM magnesium acetate, and dissolved in 10 ml of Clear-sol II (manufactured by Nacalai Tesque, Inc.). The radioactivity was then measured using a liquid scintillation counter (N=3).
The reaction was initiated by adding 50 mM ^3[H]-ATP to a final concentration of 1 mM. The 50 mM ^3[H]-ATP was prepared by mixing an ATP-tris solution (manufactured by Sigma-Aldrich) with [2,8-^3H]adenosine triphosphate tetrasodium salt (26.0 Ci/mmol) (manufactured by New England Nuclear). PEP was used as a test reagent, and pyruvic acid was used as a negative control. Five minutes before the addition of ATP, PEP or pyruvic acid, as a solution in 20 mM MOPS-tris (pH 7.0), 0.3 M sucrose, 5 mM potassium chloride, and 5 mM magnesium acetate, was added to the measurement liquid to a final PEP concentration of 0.02, 0.05, 0.1, 0.2, 0.4, or 1 mM, or to a final pyruvic acid concentration of 0.5 or 1 mM.
(§2) Chromaffin granule membrane vesicles were prepared in the same manner as in Example 5, and uptake of radiolabeled ATP into the vesicles was measured. Transport activity of catecholamine (dopamine) and ATP-dependent proton transport by V-ATPase were also measured in the same manner as in Example 5.

[2] = tested on: catecholamine transport of chromaffin granule membranes; test: Catecholamine (dopamine) transport in chromaffin granule membranes; type: biochemical, cattle; conditions: role: inhibitor
Protocol: as §1
A catecholamine transport inhibition experiment was carried out in the same manner as the ATP transport experiment except that the experiment used a measurement liquid containing 20 mM MOPS-tris (pH 7.0), 0.1 M sucrose, 0.1 M potassium chloride, 5 mM magnesium acetate, and about 5 μg of chromaffin granule membranes. To 0.5 ml of the measurement liquid, 2 mM ATP was added, and the resulting mixture was incubated at 30° C. for about 5 minutes, followed by addition of 3[H]-dopamine thereto to a final concentration of 10 μM. After further incubation at 30° C. for 15 minutes, 0.2 ml of the reaction liquid was subjected to suction filtration through a Millipore MCE membrane filter with a pore size of 0.45 μm, and the radioactivity on the filter was measured (N=3). The substrate, 3[H]-dopamine, was prepared by mixing 3,4-[RING-2,5,6-^3H]dihydroxyphenylethylamine (dopamine) (30 Ci/mmol) (manufactured by New England Nuclear) with dopamine hydrochloride (manufactured by LKT Laboratories) such that a final concentration of […] was achieved during the use.
as §2

[3] = PEP; cited from earlier work
[4] = tested on: MCD diet-induced NASH model; conditions: administration of clodronate, Non Patent Literature 4; cited from earlier work
[5] = clodronate; cited from earlier work
V-ATPase = test: Inhibitory effect on V-ATPase (data not shown)
mouse auricle = test: Imiquimod-induced psoriasis model, comparison with an anti-TNFα antibody (Example 19); type: in vivo
Protocol: The dorsal hair of mice was shaved and depilated (Day 0). To each of the left auricle and the depilated back of each mouse, 62.5 mg of 5% imiquimod cream (Beselna Cream 5%) was applied once daily a total of seven times (Days 1 to 7) in accordance with Example 18, to induce imiquimod-induced psoriasis (IMQ group). In the IMQ+IMG group, mice received oral administration of imeglimin (40 mg/kg) once daily (Day 1 to 7) after the imiquimod application. […] Thickness of the auricle was measured, and the degrees of erythema, desquamation, and infiltration in the affected area were rated on Days 1, 3, 5, 7, and 8 according to the PASI scoring of the DermNET Dermatology Resource (none: 0, mild: 1, moderate: 2, severe: 3, and very severe: 4). The resulting values were used to calculate the PASI score.
Further, for an auricle excised on Day 8, immunohistochemical staining was performed in the same manner as in Example 18, and auricular sections were imaged using a fluorescence microscope (BZ-X710; manufactured by Keyence Corporation).

[6] = cited from earlier work

C=C(OP(=O)(O)O)C(=O)O [PEP, phosphoenolpyruvic acid]
IC50 [1]: 25 µM
ATP-dependent dopamine transport activity ([2]; 5 mM PEP, 10 μM 3H-dopamine, 2 mM ATP, N=3, control 11.07±0.129): 12.41±0.250 nmol/mg protein
inhibition of catecholamine transport ([2]; up to 5 mM PEP (data not shown)): did not inhibit
energy of phosphate bond in vivo [3]: -14.8 kcal/mol

O=P(O)(O)C(Cl)(Cl)P(=O)(O)O [clodronate]
NASH activity score, inflammatory cell infiltration, and hepatic fibrosis [4]: improves
absorption [5]: extremely low absorption
accumulation in bone [5]: accumulate in bone
serious side effect [5]: jaw osteonecrosis

C[C@@H]1N=C(N)NC(N(C)C)=N1 [imeglimin]
inhibitory effect on V-ATPase (V-ATPase): neither imeglimin nor metformin exhibited a strong inhibitory effect
inhibitory effects on psoriatic symptoms by TMG1 immunohistochemical images (mouse auricle; Day 8 (FIG. 42)): supported by the immunohistochemical images of TMG1
erythema (excepted from the symptoms reduced) (mouse auricle; imeglimin 40 mg/kg oral daily or infliximab 100 μg/mouse i.v. Days 1, 3, 5, N=5 (FIG. 38)): except erythema
typical psoriatic symptoms induced by imiquimod, except erythema (thickness, desquamation, infiltration, PASI score) (mouse auricle; imeglimin 40 mg/kg oral daily or infliximab 100 μg/mouse i.v. Days 1, 3, 5, N=5 (FIGS. 37-41)): reduced
effect of imeglimin compared with infliximab (mouse auricle; imeglimin 40 mg/kg oral vs infliximab 100 μg/mouse i.v.): almost equivalent, or imeglimin was more effective
concentration ([6]; 1 g of imeglimin hydrochloride daily for one week, 10080 min, read-out: blood imeglimin concentration): 9 µM
transfer into the body ([6]; imeglimin): extremely low transfer into the body
